Experimental findings from patent US8329686B2, “Isatin analogues and uses therefor” (Washington University, priority 2006, dated 2012) are described below.

Structures are written as SMILES. Where two headings read alike, the source gives them in different places.

Series [1] concerns the target T1, caspase 7 (Homo sapiens, UniProt P55210).
T1 construct: purchased Sigma-Aldrich (St. Louis, Mo.)
T1 sequence (P55210 24-198 limits assumed): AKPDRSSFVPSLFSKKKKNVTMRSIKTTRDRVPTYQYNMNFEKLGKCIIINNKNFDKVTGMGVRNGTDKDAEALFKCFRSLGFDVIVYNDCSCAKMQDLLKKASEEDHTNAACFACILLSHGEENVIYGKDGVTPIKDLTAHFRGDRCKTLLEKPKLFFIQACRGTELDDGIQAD
T1 sequence (P55210 207-303 limits assumed): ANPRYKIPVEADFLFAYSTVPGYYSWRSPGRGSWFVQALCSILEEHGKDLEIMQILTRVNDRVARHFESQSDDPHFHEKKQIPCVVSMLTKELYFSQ
As to the kind of experiment: Enzyme inhibition assay, caspase 7 (fluorogenic Ac-DEVD-AMC). It is filed as biochemical.

Series [2] addresses T2, caspase-3 (Homo sapiens, UniProt P42574).
T2 construct: purchased Sigma-Aldrich (St. Louis, Mo.)
T2 sequence (P42574 29-175 limits assumed): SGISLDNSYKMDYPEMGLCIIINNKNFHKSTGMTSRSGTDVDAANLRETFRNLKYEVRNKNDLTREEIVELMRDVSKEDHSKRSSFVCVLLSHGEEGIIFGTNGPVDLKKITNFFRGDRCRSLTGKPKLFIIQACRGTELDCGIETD
T2 sequence (P42574 176-277 limits assumed): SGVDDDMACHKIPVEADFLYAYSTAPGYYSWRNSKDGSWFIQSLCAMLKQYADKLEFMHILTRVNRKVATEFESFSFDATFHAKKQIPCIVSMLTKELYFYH
As to the kind of experiment: Enzyme inhibition assay, caspase 3 (fluorogenic Ac-DEVD-AMC). It is filed as biochemical.
Method: (§1) Enzyme Assays. Inhibition of recombinant human caspase-3 and other caspases by the isatin analogues was assessed using a fluorometric assay by measuring the accumulation of a fluorogenic product, 7-amino-4-methylcoumarin (7-AMC).
(§2) Enzyme Inhibition Assays. Recombinant human caspases (3, 6, 7, and 8) and their peptide-specific substrates (Ac-DEVDAMC, Ac-VEID-AMC, Ac-DEVD-AMC, and Ac-IETD-AMC, respectively) were purchased from Sigma-Aldrich (St. Louis, Mo.) with the exception of caspase 1 and its substrate (Ac-YVAD-AMC), which were obtained from BIOMOL Research Laboratories (Plymouth Meeting, Pa.). The enzymatic activity of caspases was determined by measuring the accumulation of the fluorogenic product 7-amino-4-methylcoumarin (AMC). All assays were prepared in 96-well format at a volume of 210 μL per well and consisted of 100 mM Na+ HEPES (pH 7.4), 10% sucrose, 100 mM NaCl, 0.1% CHAPS, 5 mM 2-mercaptoethanol, 2 mM EDTA, 10 μM Ac-YVAD-AMC (caspase 1); 20 mMNa^+ HEPES (pH 7.4), 10% sucrose, 100 mMNaCl, 0.1% CHAPS, 2 mM EDTA, 10 μM Ac-DEVD-AMC (caspase 3); 20 mM Na^+ HEPES (pH 7.4), 10% sucrose, 100 mM NaCl, 0.1% CHAPS, 2 mM EDTA, 10 μM Ac-VEID-AMC (caspase 6); 20 mM Na+ HEPES (pH 7.4), 100 mM NaCl, 10% sucrose, 0.1% CHAPS, 5 mM 2-mercaptoethanol, 2 mM EDTA, 10 μM Ac-DEVD-AMC (caspase 7); 20 mM Na+ HEPES (pH 7.4), 10% sucrose, 100 mM NaCl, 0.1% CHAPS, 2 mM EDTA, 10 μM Ac-IETD-AMC (caspase 8).
(§3) Recombinant caspases were first assayed to determine the optimal concentration for each experiment. Optimal concentrations were based in the linear range of the enzyme activation curves. Peptide inhibitors with known IC50 values were tested together with the compounds as a control for each caspase assay. […] Peptide and nonpeptide inhibitors were dissolved in DMSO, and a 2 serial dilution was performed prior to screening in order to obtain desired concentrations. 10 μL was added to each well containing 100 μL caspase solution and allowed to incubate on ice for 30 min. […] The final concentration of DMSO in all wells was 5% of the total volume. In caspase-1 and caspase-7 assays, 10 mM 2-mercaptoethanol was added to the substrate solution for full activation of the enzymes.
(§4) Compounds were tested in duplicate, and IC50 curves were calculated for all inhibitors assayed. Final IC50s were the average of three independent experiments.

In series [3] the target is T3, caspase 8 (Homo sapiens, UniProt Q14790).
T3 construct: purchased Sigma-Aldrich (St. Louis, Mo.)
As to the kind of experiment: Enzyme inhibition assay, caspase 8 (fluorogenic Ac-IETD-AMC). It is filed as biochemical. The note with it: Table 2; read-out: IC50 (nM) Caspase 8.
Method: as §1, §2, §3, §4

Series [4] concerns the target T4, caspase 6 (Homo sapiens, UniProt P55212).
T4 construct: purchased Sigma-Aldrich (St. Louis, Mo.)
T4 sequence (P55212 24-179 limits assumed): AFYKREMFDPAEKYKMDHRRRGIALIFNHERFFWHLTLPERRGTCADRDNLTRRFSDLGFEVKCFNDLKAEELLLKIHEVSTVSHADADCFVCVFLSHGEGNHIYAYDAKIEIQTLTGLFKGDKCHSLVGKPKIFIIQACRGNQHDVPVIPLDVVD
T4 sequence (P55212 194-293 limits assumed): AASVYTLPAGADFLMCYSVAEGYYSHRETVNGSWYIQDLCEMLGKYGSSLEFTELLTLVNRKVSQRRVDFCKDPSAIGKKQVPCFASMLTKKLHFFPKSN
Put plainly: Enzyme inhibition assay, caspase 6 (fluorogenic Ac-VEID-AMC). In kind it is biochemical. Particulars: Table 2; read-out: IC50 (nM) Caspase 6.
Method: as §1, §2, §3, §4

The target of series [5] is T5, caspase 1 (Homo sapiens, UniProt P29466).
T5 construct: purchased BIOMOL Research Laboratories (Plymouth Meeting, Pa.)
T5 sequence (P29466 120-297 limits assumed): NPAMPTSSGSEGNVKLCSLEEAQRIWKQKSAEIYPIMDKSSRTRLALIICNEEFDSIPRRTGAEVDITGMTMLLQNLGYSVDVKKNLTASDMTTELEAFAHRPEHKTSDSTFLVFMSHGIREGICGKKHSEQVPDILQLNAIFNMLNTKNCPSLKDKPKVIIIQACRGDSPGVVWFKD
T5 sequence (P29466 317-404 limits assumed): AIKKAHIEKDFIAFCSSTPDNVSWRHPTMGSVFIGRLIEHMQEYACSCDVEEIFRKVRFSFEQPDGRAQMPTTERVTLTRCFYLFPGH
Put plainly: Enzyme inhibition assay, caspase 1 (fluorogenic Ac-YVAD-AMC). In kind it is biochemical. Particulars: Table 2; read-out: IC50 (nM) Caspase 1.

Where [6] appears, read: Table 5, read-out: IC50 (nM) caspase-7.
Setting [7] is: Table 5, read-out: IC50 (nM) caspase-3.
The mark [8] stands for this setting: Table 4, read-out: IC50 (nM) caspase-7.
Setting [9] is: Table 4, read-out: IC50 (nM) caspase-3.
Setting [10] is: Table 2, read-out: IC50 (nM) Caspase 7.
Where [11] appears, read: Table 2, read-out: IC50 (nM) Caspase 3.

T3 sequence (Q14790 217-374 limits assumed): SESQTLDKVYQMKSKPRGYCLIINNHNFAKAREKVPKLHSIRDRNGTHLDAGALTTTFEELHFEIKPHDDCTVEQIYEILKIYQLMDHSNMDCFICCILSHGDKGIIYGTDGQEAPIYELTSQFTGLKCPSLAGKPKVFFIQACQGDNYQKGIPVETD
T3 sequence (Q14790 385-479 limits assumed): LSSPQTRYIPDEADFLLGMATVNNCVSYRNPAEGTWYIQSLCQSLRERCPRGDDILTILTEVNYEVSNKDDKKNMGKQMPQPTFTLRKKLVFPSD

By melting point is commonly meant the temperature of the solid-liquid transition. The term IC50 denotes the midpoint of a concentration-inhibition curve. Consider `O=C1Nc2ccc(S(=O)(=O)N3CC[C@H]3COc3ccccc3)cc2C1=O` [Compound 17, (S)-5-(2-Phenoxymethyl-azetidine-1-sulfonyl)-1H-indole-2,3-dione], for which the melting point lay in the range of 173.2 to 174.5 °C. Besides, the IC50 in series [1] (setting [6]) was found to be 1350 ± 141 nM. Further, in series [1] (relative to the corresponding pyrrolidine analogue 10), the “fold less potent for inhibiting caspase-7” value was greater than 2 fold. For the same compound, the half-maximal inhibitory concentration (IC50) in series [2] (setting [7]) was 287 ± 24.7 nM.
Compound `O=C1C(=O)N(Cc2ccc(F)cc2)c2ccc(S(=O)(=O)N3CC[C@H]3COc3ccccc3)cc21` [Compound 18e, (S)-1-(4-Fluorobenzyl)-5-(2-phenoxymethyl-azetidine-1-sulfonyl)-1H-indole-2,3-dione] showed a melting point of 164.6 to 165.7 °C. For the same compound, the IC50 in series [1] (setting [6]) amounted to 21 ± 5.6 nM. In addition, in series [2] (setting [7]), the IC50 was determined as 8.8 ± 1.4 nM.
`CSc1ccc(CN2C(=O)C(=O)c3cc(S(=O)(=O)N4CCC[C@H]4COc4ccccc4)ccc32)cc1` [Compound 11d, (S)-1-(4-Methylthiobenzyl)-5-(2-phenoxymethyl-pyrrolidine-1-sulfonyl)-1H-indole-2,3-dione] came in with a melting point of 175.4 to 176.8 °C.
Consider `O=C1C(=O)N(Cc2ccccc2F)c2ccc(S(=O)(=O)N3CC[C@H]3COc3ccccc3)cc21` [Compound 18f, (S)-1-(2-Fluorobenzyl)-5-(2-phenoxymethyl-azetidine-1-sulfonyl)-1H-indole-2,3-dione], for which the melting point lay in the range of 147.1 to 148 °C. The IC50 in series [1] (setting [6]) is 26 ± 5.2 nM. Also, the IC50 in series [2] (setting [7]) stood at 9.4 ± 0.3 nM.
Taken in the same sequence, the figures for `O=C1C(=O)N(Cc2ccc(F)nc2)c2ccc(S(=O)(=O)N3CC[C@H]3COc3ccccc3)cc21` [Compound 18g, (S)-1-(6-Fluoropyridin-3-ylmethyl)-5-(2-phenoxymethylazetidine-1-sulfonyl)-1H-indole-2,3-dione] were 176.8 to 178.3 °C, 17 ± 3 nM and 10.9 ± 1.4 nM.
The matching figures for `O=C1C(=O)N(Cc2ccccc2)c2ccc(S(=O)(=O)N3CC[C@H]3COc3ccccc3)cc21` [Compound 18b, (S)-1-Benzyl-5-(2-phenoxymethyl-azetidine-1-sulfonyl)-1H-indole-2,3-dione]: 157.1 to 158.9 °C, 29.5 ± 4.9 nM and 9.7 ± 1.6 nM.
Taken in the same sequence, the figures for `COc1ccc(CN2C(=O)C(=O)c3cc(S(=O)(=O)N4CC[C@H]4COc4ccccc4)ccc32)cc1` [Compound 18c, (S)-1-(4-Methoxybenzyl)-5-(2-phenoxymethyl-azetidine-1-sulfonyl)-1H-indole-2,3-dione] were 159.8 to 161.5 °C, 23.2 ± 3 nM and 8.4 ± 1.2 nM.
`O=C1C(=O)N(Cc2ccnc(F)c2)c2ccc(S(=O)(=O)N3CC[C@H]3COc3ccccc3)cc21` [Compound 18h, (S)-1-(2-Fluoropyridin-4-yl-methyl)-5-(2-phenoxymethylazetidine-1-sulfonyl)-1H-indole-2,3-dione] gave a melting point of 159 to 159.9 °C. Besides, the IC50 in series [1] (setting [6]) was 135 ± 7.1 nM. Moreover, the IC50 in series [2] (setting [7]) was determined as 29.2 ± 5.2 nM.
For the compound `O=C1C(=O)N(Cc2ccnc(F)c2)c2ccc(S(=O)(=O)N3CCC[C@H]3COc3ccccc3)cc21` [Compound 11h, (S)-1-(2-Fluoro-pyridin-4-yl-methyl)-5-(2-phenoxymethyl-pyrrolidine-1-sulfonyl)-1H-indole-2,3-dione], the melting point is 180.1 to 181.9 °C. Further, in series [1] (setting [8]), the IC50 was found to be 58 ± 2.8 nM. The IC50 in series [2] (setting [9]) was 21.3 ± 3.2 nM.
Turning to `O=C1C(=O)N(Cc2ccc(F)cc2)c2ccc(S(=O)(=O)N3CCC[C@H]3COc3ccccc3)cc21` [Compound 11c, (S)-1-(4-Fluorobenzyl)-5-(2-phenoxymethyl-pyrrolidine-1-sulfonyl)-1H-indole-2,3-dione], the melting point was 74.5 to 75.4 °C.
`O=C1C(=O)N(Cc2ccccc2)c2ccc(S(=O)(=O)N3CCC[C@H]3COc3ccccc3)cc21` [Compound 2, (S)-1-Benzyl-5-(2-phenoxymethyl-pyrrolidine-1-sulfonyl)-1H-indole-2,3-dione]: the melting point lay in the range of 97.2 to 99.1 °C. In addition, the IC50 in series [1] (setting [8]) came out at 28 ± 0.7 nM. Also, in series [2] (setting [9]), the IC50 stood at 12.2 ± 0.3 nM.
`N#CC(C#N)=C1C(=O)N(Cc2ccc(OCCF)cc2)c2ccc(S(=O)(=O)N3CC[C@H]3COc3cccnc3)cc21` [WC-II-104]: the IC50 in series [3] is greater than 50000 nM; in series [4], 580 ± 55 nM; in series [1] (setting [10]), 22.7 ± 3.1 nM; in series [2] (setting [11]), 7.1 ± 0.6 nM; in series [5], 2900 nM.
As to `O=C1Nc2ccc(S(=O)(=O)N3CC[C@H]3COc3ccccc3)cc2C1=NO` [WC-II-52], the half-maximal inhibitory concentration (IC50) is greater than 50000 nM in series [3]; greater than 20000 nM in series [4]; greater than 50000 nM in series [1] (setting [10]); greater than 20000 nM in series [2] (setting [11]); greater than 50000 nM in series [5]. In series [2] (caspase-3/7), the “potency as caspase-3/7 inhibitors (in words)” value is reported as “low potency”.
The compound `O=C1C(=O)N(Cc2cccc(F)n2)c2ccc(S(=O)(=O)N3CC[C@H]3COc3ccccc3)cc21` [Compound 18i, (S)-1-(6-Fluoropyridin-2-yl-methyl)-5-(2-phenoxymethylazetidine-1-sulfonyl)-1H-indole-2,3-dione] displayed a melting point of 144.7 to 146.1 °C. In addition, in series [1] (setting [6]), the IC50 amounted to 22.7 ± 3.1 nM. Moreover, the IC50 in series [2] (setting [7]) is 5.8 ± 1 nM.
For the compound `COc1ccc(CN2C(=O)C(=C(C#N)C#N)c3cc(S(=O)(=O)N4CC[C@H]4COc4cccnc4)ccc32)cc1` [WC-II-87], the IC50 was greater than 50000 nM in series [3]; 450 ± 43 nM in series [4]; 50 ± 11.6 nM in series [1] (setting [10]); 6 ± 0.8 nM in series [2] (setting [11]); 3600 nM in series [5].
The compound `O=C1C(=O)N(Cc2cccc(F)n2)c2ccc(S(=O)(=O)N3CCC[C@H]3COc3ccccc3)cc21` [Compound 11i, (S)-1-(6-Fluoro-pyridin-2-yl-methyl)-5-(2-phenoxymethyl-pyrrolidine-1-sulfonyl)-1H-indole-2,3-dione] showed a melting point of 128.6 to 129.4 °C. In series [1] (setting [8]), the IC50 was 22.2 ± 4 nM. In addition, the IC50 in series [2] (setting [9]) came out at 9.1 ± 1.8 nM.
`CN1C(=O)C(=O)c2cc(S(=O)(=O)N3CC[C@H]3COc3ccccc3)ccc21` [Compound 18a, (S)-1-Methyl-5-(2-phenoxymethyl-azetidine-1-sulfonyl)-1H-indole-2,3-dione] had a melting point of 173.5 to 174.9 °C. Also, the IC50 in series [1] (setting [6]) is 362.5 ± 3.5 nM. In addition, in series [2] (setting [7]), the IC50 is 91.7 ± 7.6 nM.
The matching figures for `CSc1ccc(CN2C(=O)C(=O)c3cc(S(=O)(=O)N4CC[C@H]4COc4ccccc4)ccc32)cc1` [Compound 18d, (S)-1-(4-Methylthiobenzyl)-5-(2-phenoxymethyl-azetidine-1-sulfonyl)-1H-indole-2,3-dione]: 167.6 to 169.2 °C, 26.7 ± 7.2 nM and 11.3 ± 1.2 nM.
For `N#CC(C#N)=C1C(=O)N(Cc2ccc(OCCF)cc2)c2ccc(S(=O)(=O)N3CCC[C@H]3COc3cccnc3)cc21` [WC-II-103], the IC50 in series [3] is greater than 50000 nM; in series [4] it was 770 ± 119 nM; in series [1] (setting [10]), 26 ± 5.2 nM; in series [2] (setting [11]) it was 7.5 ± 0.2 nM; in series [5] it was 3500 nM.
